From patent publication US8404855B2, “Substituted enaminocarbonyl compounds” (Bayer CropScience AG, priority 2006, dated 2013) come the findings set out here.

The subject of assay [1] is cotton aphid (Aphis gossypii). Put plainly: Aphis gossypii test (APHIGO), leaf dip. It counts as in vivo. Particulars: cotton leaves dipped. The protocol: (§1) After the desired period of time, the kill in % is determined.
The test system of assay [2] is green peach aphid (Myzus persicae). Put plainly: Myzus test (MYZUPE spray treatment). It counts as in vivo. The text has this:
In this test, for example, the following compounds of the Preparation Examples show good activity: see table

The test system is the same in assay [3]. In words: Myzus persicae test, hydroponic treatment (MYZUPE sys.). Type of assay: in vivo. Particulars: pea plant in treated water. The protocol: The preparation of active compound is mixed with water. The stated concentration refers to the amount of active compound per volume unit of water (mg/l=ppm). The treated water is filled into containers housing a pea plant (Pisum sativum) which is then infected with the green peach aphid (Myzus persicae).
as §1

A further assay has as its system Lucilia cuprina larvae. Put plainly: Lucilia cuprina test (LUCICU). It counts as in vivo. Particulars: treated horse meat. The protocol:
as §1

Assay [4] relates to larvae of the mustard beetle (Phaedon cochleariae). Put plainly: Phaedon test (PHAECO spray treatment). Particulars: 500 g/ha; Chinese cabbage leaf disks sprayed.
Assay [5] relates to green peach aphid (Myzus persicae). In words: Myzus persicae test (MYZUPE T), leaf dip. It counts as in vivo. Particulars: 20 ppm; cabbage leaves dipped; comparison with prior art. Here is the method:
as §1

For assay [6] the test system is unchanged. Put plainly: Myzus test; oral (MYZUPE O). It counts as in vivo.
Assay [7] concerns adult fleas (Ctenocephalides felis). In words: Ctenocephalides felis; oral (CTECFE). Type of assay: in vivo. Particulars: 100 ppm in citrated cattle blood. The protocol:
Part of the concentrate is diluted with citrated cattle blood, and the desired concentration is prepared.
20 unfed adult fleas (Ctenocephalides felis) are placed into a chamber whose top and bottom ends are closed with gauze. A metal cylinder whose bottom end is closed with parafilm is placed onto the chamber. The cylinder contains the blood/active compound preparation, which can be taken up by the fleas through the parafilm membrane. The blood is warmed to 37° C., but the flea chamber is at room temperature.
as §1

For a further assay, the system named is Meloidogyne incognita. Put plainly: Meloidogyne test (MELGIN spray treatment). Type of assay: in vivo. Particulars: 20 ppm; gall formation, 100% = no galls; comparison with prior art. The protocol:
Containers are filled with sand, active compound solution, Meloidogyne incognita egg/larvae suspension and lettuce seeds. The lettuce seeds germinate and the plants develop. On the roots, galls are formed.
After the desired period of time, the nematicidal activity is determined by the formation of galls in %. 100% means that no galls were found; 0% means that the number of galls on the treated plants corresponds to that of the untreated controls.

Another assay deals with Boophilus microplus. In words: Boophilus microplus test (BOOPMI injection). It counts as in vivo. Particulars: 20 ppm (so in the source), 100% = no tick has laid fertile eggs, comparison with prior art. Here is the method: The solution of active compound is injected into the abdomen (Boophilus microplus), and the animals are transferred into dishes and kept in a temperature-controlled room.
100% means that no tick has laid any fertile eggs.

The mark [8] stands for this setting: 500 g/ha, Chinese cabbage leaf disks sprayed.
The mark [9] stands for this setting: 0.8 ppm, comparison with prior art.
The mark [10] stands for this setting: 4 ppm, comparison with prior art.

On to `O=C1OCC(N(Cc2ccc(Cl)nc2)CC(F)F)=C1Cl` [Example 8, 3-Chloro-4-[[(6-chloropyridin-3-yl)methyl](2,2-difluoroethyl)amino]furan-2(5H)-one], for which the entries for the “Kill rate in % after 6 days” value in assay [1] (20 ppm) and in assay [3] (4 ppm) were 100% and 98%, respectively. Further, the “Kill rate in % after 5 days” value in [2] (setting [8]) is on record as 100%. In the assay with Lucilia cuprina larvae (100 ppm), the “Kill rate in % after 2 days” value was found to be 100%.

Regarding `O=C1OCC(N(Cc2ccc(Cl)nc2)CC(F)F)=C1Br` [Example 7, 3-Bromo-4-[[(6-chloropyridin-3-yl)methyl](2,2-difluoroethyl)amino]furan-2(5H)-one], the “Kill rate in % after 5 days” value in assay [2] (setting [8]) turned out to be 100%.

For `O=C1C=C(N(Cc2ccc(Cl)nc2)CC(F)Cl)CO1` (centres unmarked) [Example 17, 4-[[(6-chloropyridin-3-yl)methyl](2-chloro-2-fluoroethyl)amino]furan-2(5H)-one], the “Kill rate in % after 5 days” value in assay [2] (setting [8]) is 100%. In addition, the “Kill rate in % after 7 days” value in assay [4] is 100%.

Regarding `O=C1C=C(N(Cc2ccc(Cl)nc2)CC(F)F)CO1` [Example 1, 4-[[(6-Chloropyridin-3-yl)methyl](2,2-difluoroethyl)amino]furan-2(5H)-one], the “Kill rate in % after 6 days” value in assay [1] (setting [9]) stood at 60%; in [1] (setting [10]), 98%; in [5], 95%; in [3] (setting [9]), 100%. Besides, the “Kill rate in % after 5 days” value is 80% in [2] (4 g/ha, leaf disks sprayed, comparison with prior art) and 100% in [6] (0.032 ppm, oral, comparison with prior art). In addition, the “Kill rate in % after 2 days” value in the assay on Lucilia cuprina larvae (setting [10]) is 100%.

Consider `O=C1C=C(N(Cc2ccc(F)nc2)CC(F)F)CO1` [Example 15], for which the “Kill rate in % after 6 days” value in [1] (100 ppm) and in assay [3] (4 ppm) was 100% in each case. In addition, the “Kill rate in % after 5 days” value in [2] (setting [8]) was determined as 100%. For the same compound, the “Kill rate in % after 7 days” value in [4] is 100%. The “Kill rate in % after 2 days” value (in the assay with Lucilia cuprina larvae (100 ppm); in assay [7]) was 90% each time.

With `O=C1C=C(N(CCCF)Cc2ccc(Cl)nc2)CO1` [Example 2, 4-[[(6-Chloropyridin-3-yl)methyl](3-fluoro-n-propyl)amino]furan-2(5H)-one], the “Kill rate in % after 5 days” value in assay [2] (setting [8]) was found to be 100%; in assay [6] (20 ppm, oral uptake by sucking), 100%.

On to `O=C1C=C(N(CC=C(Cl)Cl)Cc2ccc(Cl)nc2)CO1` [Example 3, 4-[[(6-Chloropyridin-3-yl)methyl](3,3-dichloroprop-2-en-1-yl)amino]furan-2(5H)-one], for which the “Kill rate in % after 5 days” value in assay [2] (setting [8]) was 100%.

For the compound “(E/Z)-4-[[(6-Chloropyridin-3-yl)methyl](2-fluorovinyl)amino]-5-methylfuran-2(5H)-one [Example 5]”, the “Kill rate in % after 5 days” value in assay [2] (setting [8]) was found to be 100%.

Take `O=C1C=C(N(CCF)Cc2ccc(Cl)nc2)CO1` [Example 4, 4-[[(6-Chloropyridin-3-yl)methyl](2-fluoroethyl)amino]furan-2(5H)-one]: the “Kill rate in % after 6 days” value in [1] (setting [10]) was determined as 99%; in [5], 80%; in [3] (0.16 ppm, comparison with prior art) it was 55%; in [3] (setting [9]), 100%. Besides, the “Kill rate in % after 14 days” value in the assay with Meloidogyne incognita was determined as 70%. The “Kill rate in % after 7 days” value with Boophilus microplus is recorded as 100%. In addition, in [7] (comparison with prior art), the “Kill rate in % after 1 day” value came out at 30%.

Take `CC1OC(=O)C=C1N(Cc1ccc(Cl)nc1)CC(F)F` (centres unmarked) [Example 6, 4-[[(6-Chloropyridin-3-yl)methyl](2,2-difluoroethyl)amino]-5-methylfuran-2(5H)-one]: in assay [2] (setting [8]), the “Kill rate in % after 5 days” value is on record as 100%.
